Experimental data from patent US20250281473A1, “CDK Inhibitors And Their Use As Pharmaceuticals” (PRELUDE THERAPEUTICS INCORPORATED, priority 2024, published 2025).

Key:
[1] = system: DLBCL (SUDHL4, OCI-Ly-10, and TMD-8) and CLL (HG-3, JVM-3, and MEC-1) cell lines; assay: Caspase 3/7-Glo assay in DLBCL and CLL cell lines; type: cell-based; conditions: 6 h treatment
[2] = system: Karpas-422 subcutaneous xenograft; assay: Karpas-422 subcutaneous xenograft, tumor growth; type: in vivo; conditions: Formula (I) 30 mg/kg intravenously QW, BID q2h
Description: (§1) See FIG. 3 (Data represented as mean±SEM. N=8, ***P<0.001, ****P<0.0001 by Mann-Whitney U test).

[3] = system: Ibrutinib-sensitive and Ibrutinib-resistant MCL cell lines; assay: CTG assay in MCL cell lines; type: cell-based; conditions: in vitro
[4] = system: LY2264 (DLBCL) patient-derived xenografts (PDX); assay: LY2264 (DLBCL) patient-derived xenograft, tumor growth; type: in vivo
Description: See FIG. 6 (Data represented as mean±SEM. N=8, *P<0.05, **P<0.001, ***P<0.001 by Mann-Whitney U test).

[5] = system: Mino CDX model of Ibrutinib resistant MCL; assay: Mino CDX model of Ibrutinib resistant MCL, tumor growth; type: in vivo; conditions: Formula (I) i.v. 15 mg/kg, QW BID q2h
Description: Anti-tumor activity remains similar to the parental Mino model. Ibrutinib-resistance was induced through repeat in vivo passage and treatment with Ibrutinib. See FIG. 15 (Data represented as mean±SEM. N=7, *P<0.05, ****P<0.0001 by Mann-Whitney U test).

[6] = system: SUDHL4 subcutaneous xenograft; assay: SUDHL4 subcutaneous xenograft, tumor growth; type: in vivo; conditions: Formula (I) 30 mg/kg intravenously QW, BID q2h
Description: as §1

[7] = system: PBMCs derived from patients with untreated or relapsed/refractory (R/R) CLL; assay: Caspase-Glo 3/7 activity assay in CLL patient PBMCs; type: cell-based; conditions: 6 h treatment; ex vivo patient PBMCs
[8] = system: TMD-8 subcutaneous xenograft; assay: TMD-8 (DLBCL) cell line-derived subcutaneous xenograft, tumor growth; type: in vivo
Description: See FIG. 3 (Data represented as mean±SEM. N=8, ***P<0.001, ****P<0.0001 by Mann-Whitney U test). […]
(§2) See FIG. 9 (Data represented as mean±SEM. N=8, *P<0.05, **P<0.001, ***P<0.001 by Mann-Whitney U test).

U-2932 CDX = assay: U-2932 (DLBCL) CDX, tumor growth; type: in vivo
Description: as §2

`Cc1cnc(NC(=O)[C@H]2CCC[C@@H](NC(=O)CC#N)C2)cc1-c1cc(F)c2ncn(C(C)C)c2c1` [Formula (I)] was tested, and the “induction of apoptosis (caspase 3/7)” value [1] was “induction of apoptosis”, the tumor growth inhibition [2] was 108% and the “activity in CTG assay (in words)” value [3] was “shows activity”. For the same compound, the tumor growth inhibition ([4]; Formula (I) alone, 30 mg/kg i.v. QW, BID q2h) was 40%, the “tumor growth inhibition (in words)” value [5] was “significant tumor growth inhibition” and the tumor growth inhibition [6] was 125%. For the same compound, the “induction of apoptosis (caspase 3/7)” value [7] was “induction of apoptosis”, the tumor growth inhibition ([8]; Example 1, FIG. 3, Formula (I) 7.5 mg/kg intravenously QW, BID q2h) was 49% and the tumor growth inhibition ([8]; Example 1, FIG. 3, Formula (I) 15 mg/kg intravenously QW, BID q2h) was 62%. It also gave a tumor growth inhibition ([8]; Example 1, FIG. 3, Formula (I) 30 mg/kg intravenously QW, BID q2h) of 83%, a tumor growth inhibition ([8]; Example 2, FIG. 5, Formula (I) monotherapy 7.5 mg/kg i.v., BID q2h QW) of 46% and a tumor growth inhibition ([8]; Example 3, FIG. 9, Formula (I) monotherapy 7.5 mg/kg i.v. QW BID q2h) of 49%. For the same compound, the tumor growth inhibition (U-2932 CDX; Formula (I) monotherapy 7.5 mg/kg i.v. QW BID q2h) was 37%.
`CC1(C)CCC(CN2CCN(c3ccc(C(=O)NS(=O)(=O)c4ccc(NCC5CCOCC5)c([N+](=O)[O-])c4)c(Oc4cnc5[nH]ccc5c4)c3)CC2)=C(c2ccc(Cl)cc2)C1` [Venetoclax, reference compound] showed a tumor growth inhibition (U-2932 CDX; Venetoclax 50 mg/kg QD orally) of 37%.
Compound `C=CC(=O)N1CCC([C@@H]2CCNc3c(C(N)=O)c(-c4ccc(Oc5ccccc5)cc4)nn32)CC1` [Zanubrutinib, reference compound] has a tumor growth inhibition ([4]; Zanubrutinib alone, 25 mg/kg QD orally) of 64% and a tumor growth inhibition ([8]; Example 2, FIG. 5, Zanubrutinib 5 mg/kg, BID orally) of 44%.
